Data reported in patent US20040044037A1, “Amidino-urea serotonin receptor ligands and compositions, their pharmaceutical uses, and methods for their snythesis” (priority 2003, published 2004).

Columns and labels:
[1] = molecular target: T1, human 5-HT7B (h5-HT7b) receptors (Homo sapiens, UniProt P34969); assay: Competition radioligand binding, h5-HT7b; settings: [3H]5-CT; membranes of HEK 293 cells; read-out: Ki 5-HT7
T1 construct: expressed in transfected cells
Source text: The compounds of the invention interact with 5-HT receptors and show selectivity for 5-HT receptors. The 5-HT receptor binding properties of the compounds are identified by competitive radioligand binding assays wherein membranes prepared from transfected cells expressing the 5-HT receptor subtype of interest. “Binding constants” refers herein to Ki values measured by inhibition of the binding of radiolabelled ligands that are selective for the 5-HT receptor type being studied. For 5-HT7 receptors, Ki values are determined by measuring the inhibition of 5-carboxamidotryptamine (5-CT) binding, wherein 5-HT7 receptors were incubated with the radiolabelled high affinity ligand, 5-carboxamidotryptamine ([^3H]5-CT), in the presence and absence of the compounds of the invention, at varying concentrations. The compounds of the invention have high binding affinity for serotonin receptors as measured by dissociation constant Ki. […] “Selectivity” for receptor type, in the context of this invention, refers to the ratio of binding constants for the two receptor types being compared. […] The compounds of the present invention preferably show selectivity for 5-HT7 receptors over other serotonin receptor subtypes of greater than about 100. The compounds of the present invention also preferably show selectivity for 5-HT7 receptors over other receptor types, such as dopamine D2, of greater than about 100.
Cells and Membrane Preparation: HEK 293 cells stably expressing human 5-HT7B (h5-HT7b) receptors were grown in Dulbecco's Modified Eagle's Medium (DMEM; Gibco) without sodium pyruvate and containing 4.5 g/L glucose, L-glutamine/penicillin-streptomycin (Gemini), 10% fetal bovine serum and 250 mg/l of the antibiotic, G418 (Geneticin) as previously described (Jasper, J. R., Kosaka, A., To, Z. P., Chang, D. J. and Eglen, R. M. (1997) Cloning, expression and pharmacology of a truncated splice variant of the human 5-ht7 receptor (h5-ht7b). Br. J. Pharmacol. 122(1):126-132.). Cell pellets were homogenized in approximately 50 mL of homogenization buffer (buffer A) containing: 50 mM Tris (pH 7.4), 2 mM EGTA, 0.32 M sucrose, 10 μM PMSF, 1 μg/mL leupeptin, 5 μg/mL Pepstatin A, and 5 μg/mL aprotinin using an UltraTurax homogenizer (Tekmar Company, Cincinnati, Ohio) at 80% maximum setting three times for 10 sec. Cell pellets were centrifuged at 4° C. at 1,500×g for 10 min in a Beckman GS-6R centrifuge. Pellets were resuspended in buffer A, homogenized and centrifuged as described above. Pooled supernatants were transferred to centrifuge bottles and centrifuged at 4° C. at 20,000×g for 30 min in a Beckman J2-HS centrifuge. Cell pellets were resuspended in buffer A and were centrifuged at 4° C. at 20,000×g for 30 min. Cell pellets were resuspended in buffer A and stored at −70° C. in aliquots of 2.5 mg/mL total membrane protein. Total membrane protein was assessed utilizing a BCA kit (Pierce; Rockford, Ill.). Membranes containing human 5-HT1a or 5HT2a receptors expressed in CHO K1 cells were prepared as described above.
Radioligand Binding Assays: For 5-HT7 saturation binding experiments, HEK-293 cell membranes expressing h5-HT7 receptors (5-10 μg membrane protein/well) were incubated in duplicate with [^3H]5-CT (approximately 0.2 nM) in binding assay buffer containing: 50 mM HEPES (pH 7.4), 0.5 mM EDTA, 10 mM MgCl2, 10 μM pargyline to inhibit monoamine oxidase activity, and 0.1% sodium ascorbate, in a final volume of 200 μL in 96-well polypropylene plates for 2 hours at 37° C. Nonspecific binding was determined by incubating membranes with 1 μM 5-HT. All radioligand binding assays were stopped by rapid filtration onto 96-well GF/C filter plates (Packard) soaked in 0.1% polyethylenimine. Filters were washed three times with ice-cold phosphate-buffered saline (PBS) wash buffer containing 50 mM NaPO4 (pH 7.4), 0.9% NaCl, 2 mM MgCl2 and 0.02% NaN3. The filters were then counted using liquid scintillation in a Packard Topcount scintillation counter. […]

[2] = molecular target: T2, human 5-HT6 (h5-HT6) receptors (Homo sapiens, UniProt P50406); assay: Competition radioligand binding, h5-HT6; settings: [3H]LSD; membranes of HEK-293 cells; read-out: Ki 5-HT6
T2 construct: purchased Receptor Biology, Inc. (Beltsville, Md.); host or cells: HEK-293 cells

[3] = molecular target: T3, human D2S dopamine (hD2S-DA) receptors (Homo sapiens, UniProt P14416); assay: Competition radioligand binding, hD2S dopamine; settings: [3H]Spiperone; membranes of A9 L cells; read-out: Ki D2
T3 construct: purchased Receptor Biology, Inc. (Beltsville, Md.); host or cells: A9 L cells
T3 sequence (P14416 1-414 isoform P14416-2): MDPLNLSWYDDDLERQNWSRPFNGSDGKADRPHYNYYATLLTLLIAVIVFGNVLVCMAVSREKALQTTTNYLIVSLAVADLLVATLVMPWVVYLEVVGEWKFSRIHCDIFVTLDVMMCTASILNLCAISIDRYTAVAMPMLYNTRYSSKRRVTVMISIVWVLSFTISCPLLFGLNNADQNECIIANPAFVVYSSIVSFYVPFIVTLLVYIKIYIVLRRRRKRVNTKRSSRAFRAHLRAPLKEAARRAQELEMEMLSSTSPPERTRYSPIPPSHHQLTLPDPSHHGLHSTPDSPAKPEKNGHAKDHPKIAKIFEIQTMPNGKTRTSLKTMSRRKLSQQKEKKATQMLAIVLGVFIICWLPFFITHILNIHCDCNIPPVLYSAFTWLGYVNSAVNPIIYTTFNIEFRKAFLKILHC

T1 sequence (P34969 1-432 limits assumed): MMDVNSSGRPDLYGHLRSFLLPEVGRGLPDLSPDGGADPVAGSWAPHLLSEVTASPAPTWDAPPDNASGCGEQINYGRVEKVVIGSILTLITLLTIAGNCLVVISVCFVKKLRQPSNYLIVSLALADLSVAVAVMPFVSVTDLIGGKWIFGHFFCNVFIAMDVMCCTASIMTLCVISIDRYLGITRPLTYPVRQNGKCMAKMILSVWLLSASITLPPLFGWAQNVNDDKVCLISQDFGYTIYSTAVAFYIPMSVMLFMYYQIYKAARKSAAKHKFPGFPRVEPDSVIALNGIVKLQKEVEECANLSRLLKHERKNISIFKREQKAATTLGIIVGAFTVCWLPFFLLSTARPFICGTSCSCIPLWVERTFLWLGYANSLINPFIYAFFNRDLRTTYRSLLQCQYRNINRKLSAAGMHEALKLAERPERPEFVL
T2 sequence (P50406 whole entry): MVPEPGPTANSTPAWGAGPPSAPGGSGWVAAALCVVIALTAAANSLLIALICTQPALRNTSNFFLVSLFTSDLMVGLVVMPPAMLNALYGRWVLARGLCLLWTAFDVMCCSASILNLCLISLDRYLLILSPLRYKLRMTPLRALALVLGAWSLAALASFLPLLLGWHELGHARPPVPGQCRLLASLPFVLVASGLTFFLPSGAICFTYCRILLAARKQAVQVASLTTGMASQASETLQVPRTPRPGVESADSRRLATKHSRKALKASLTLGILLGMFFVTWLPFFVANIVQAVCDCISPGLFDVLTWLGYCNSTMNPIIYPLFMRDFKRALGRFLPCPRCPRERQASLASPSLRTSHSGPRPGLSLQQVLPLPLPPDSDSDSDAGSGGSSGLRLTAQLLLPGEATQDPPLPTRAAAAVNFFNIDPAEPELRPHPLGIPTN

SMILES | Ki [1] [µM] | Ki [2] [µM] | Ki [3] [µM]
N=C(NCc1cccc2ccccc12)NC(=O)N1CCCC(C(N)=O)C1 (stereo not drawn) [Example 12, 1-[({Imino[(1-naphthylmethyl)amino]methyl}amino)carbonyl]-3-piperidine carboxamide] | 0.18 |  | 
CC(O)CNC(=O)NC(=N)NCc1cccc2ccccc12 (stereo not drawn) [Example 30, 1({[({[(2-Hydroxypropyl)amino]carbonyl}amino)(imino)methyl]amino}methyl) naphthalene] | 0.013 | 1.51 | 1.58
CC(=O)NCCNC(=O)NC(=N)NCc1cccc2ccccc12 [Example 26, N-(2-{[({Imino[(1-naphthylmethyl)amino]methyl}amino)carbonyl]amino}ethyl)acetamide] | 0.01 | 1.45 | > 2.5
N=C(NCc1cccc2ccccc12)NC(=O)NCc1ccc(F)cc1 [Example 32, 1-({[({[(4-Fluorobenzyl)amino]carbonyl}amino)(imino)methyl]amino}methyl)naphthalene] | 0.024 | 1.3 | 0.78
N=C(NCc1cccc2ccccc12)NC(=O)NCc1cccs1 [Example 20, 2-({[({Imino[(1-naphthylmethyl)amino]methyl}amino)carbonyl]amino}methyl)thiophene] | 0.016 | 1.36 | 0.54
O=C(Nc1nc2ccccc2[nH]1)Nc1cc(F)ccc1F [Example 89] | 2.7 |  | 
COC(=O)NC(=N)NCc1cccc2ccccc12 [Example 4, Methylimino[(1-naphthylmethyl)amino]methylcarbamate] | 0.82 |  | 
Cc1ccccc1CNC(=O)NC(=N)NCCc1ccccn1 [Example 10, 2-(2-{[Imino([{(2-methylbenzyl)amino]carbonyl}amino)methyl]amino}ethyl)pyridine] | 0.25 |  | > 2.5
N=C(NCc1cccc2ccccc12)NC(=O)NCCc1c[nH]c2ccc(Cl)cc12 [Example 39, 5-Chloro-3-(2-{[({imino[(1-naphthylmethyl)amino]methyl}amino)carbonyl]amino}ethyl)-1H-indole] | 0.12 | 1.18 | 0.4
CN1CCCC1CCNC(=O)NC(=N)NCc1cccc2ccccc12 (stereo not drawn) [Example 13] | 0.032 | 3.05 | 1.91
N=C(NCc1cccc2ccccc12)NC(=O)N[C@H]1c2ccccc2C[C@H]1O [Example 42, 1-({[[({[(1S,2R)-2-Hydroxy-2,3-dihydro-1H-inden-1-yl]amino}carbonyl)amino](imino)methyl]amino}methyl)naphthalene] | 0.022 | 1.74 | 1.25
COc1ccccc1N1CCN(C(=O)NC(=N)N[C@H](C)c2cccc3ccccc23)CC1 [Example 83, N-{[4-(2-Methoxyphenyl)-1-piperazinyl]carbonyl}-N′-[(1R)-1-(1-naphthyl)ethyl]guanidine] | 0.75 |  | 
COc1ccccc1N1CCN(C(=O)NC(=N)N[C@H](C)c2ccc3ccccc3c2)CC1 [Example 82, N-{[4-(2-Methoxyphenyl)-1-piperazinyl]carbonyl}-N′-[(1R)-1-(2-naphthyl)ethyl]guanidine] | 1.08 |  | 
N=C(NC(=O)NCc1cccc(Cl)c1Cl)NC1CCCCC1O (stereo not drawn) [Example 9, 1,2-Dichloro-3-{[({[[(2-hydroxycyclohexyl)amino](imino)methyl]amino}carbonyl)amino]methyl}benzene] | 0.32 |  | 

Other lines, results leading:

Ki [1] [µM] | Ki [2] [µM] | Ki [3] [µM] | SMILES
0.046 | 3.2 | > 2.5 | N=C(NCc1cccc2ccccc12)NC(=O)NCC1CCNCC1 [Example 2, 4-({[({Imino[(1-naphthylmethyl)amino]methyl}amino)carbonyl]amino}methyl)piperidine]
0.014 | 1.18 | > 2.5 | COCCCNC(=O)NC(=N)NCc1cccc2ccccc12 [Example 38, 1-(3-Imino-5-oxo-10-oxa-2,4,6-triazaundec-1-yl)naphthalene]
0.019 |  |  | N=C(NCc1cccc2ccccc12)NC(=O)NCCc1ccc(O)cc1 [Example 31, 1-({[({[(4-Hydroxyphenethyl)amino]carbonyl}amino)(imino)methyl]amino}methyl) naphthalene]
0.033 | 0.5 | 0.89 | N=C(NCc1cccc2ccccc12)NC(=O)NCc1c(N)cccc1F [Example 44, 1-({[({[(2-Amino-6-fluorobenzyl)amino]carbonyl}amino)(imino)methyl]amino}methyl)naphthalene]
0.03 | 1.13 | 0.83 | COc1cc(CNC(=O)NC(=N)NCc2cccc3ccccc23)cc(OC)c1OC [Example 49, 1-({[Imino({[(3,4,5-trimethoxybenzyl)amino]carbonyl}amino)methyl]amino}methyl)naphthalene]
0.013 | 7.75 | 1.79 | N=C(NCc1cccc2ccccc12)NC(=O)NC1CC1 [Example 34, 1-({[{[(Cyclopropylamino)carbonyl]amino}(imino)methyl]amino}methyl)naphthalene]
1.23 |  |  | COc1ccc(CNC(=N)NC(C)=O)c2ccccc12 [Example 88, N-Acetyl-N′-[(4-methoxy-1-naphthyl)methyl]guanidine]
0.048 | 1.24 | 0.9 | N=C(NCc1cccc2ccccc12)NC(=O)NCCc1ccc(N)cc1 [Example 33, 1-({[({[(4-Amninophenethyl)amino]carbonyl}amino)(imino)methyl]amino}methyl) naphthalene]
0.043 | 3.4 | 0.5 | COc1ccc(CNC(=O)NC(=N)NCc2cccc3ccccc23)cc1 [Example 28, 1-({[Imino({[(4-methoxybenzyl)amino]carbonyl}amino)methyl]amino}methyl)naphthalene]
0.011 | 0.68 | 0.48 | N=C(NCc1cccc2ccccc12)NC(=O)NCc1cccc(CN)c1 [Example 17, 1-({[[({[3-(Aminomethyl)benzyl]amino}carbonyl)amino](imino)methyl]amino}methyl)naphthalene]
0.12 | 0.53 | 0.86 | N=C(NCc1cccc2ccccc12)NC(=O)NCCSCc1c(F)cccc1Cl [Example 47, 1-[10-(2-Chloro-6-fluorophenyl)-3-imino-5-oxo-9-thia-2,4,6-triazadec-1-yl]naphthalene]
0.021 | 0.48 | 0.5 | N=C(NCc1cccc2ccccc12)NC(=O)NCCCO [Example 16, 1-({[({[(3-Hydroxypropyl)amino}carbonyl}amino)(imino)methyl]amino}methyl)naphthalene]
0.93 |  |  | N=C(NCc1cccc2ccccc12)NC(=O)N1CCNCC1 [Example 37, N-(1-Naphthylmethyl)-N′-(1-piperazinylcarbonyl)guanidine]
1.01 |  |  | CNC(=O)/N=C(/NCc1cccc2ccccc12)NC(=O)NC [Example 52, N-Methyl-N′-{(Z)-{[(methylamino)carbonyl]amino}[(1-naphthylmethyl)amino]methylidene}urea]
